# Measurements reported in patent publication US4925968A, “N-acyl-N-naphthoylglycines as aldose reductase inhibitors” (American Home Products Corporation, priority 1989, dated 1990).
# System: aldose reductase
# Experiment: galactitol (dulcitol) accumulation in lens, sciatic nerve and diaphragm of galactosemic rats
# Type: in vivo, rat (Sprague-Dawley, male)
# Conditions: 4 days; for % Lowering dulcitol accumulation IN VIVO, D: diaphragm; for % Lowering dulcitol accumulation IN VIVO, L: lens
# Excerpt: Such experiments are exemplified hereinbelow after the listing of the following general comments pertaining to these experiments: (a) Four or more groups of six male rats, 50-70 g, Sprague-Dawley strain, were used. The first group, the control group, was fed a mixture of laboratory chow (rodent Laboratory Chow, Purina) and glucose at 20% (w/w %) concentration. […] The test compound was either admixed to the diet or administered by gavage. In experiments involving compound administration in the diet, the average dose administered was calculated from the actual food intake of the animals in each group. The concentration of galactose in the diet of the treated groups was the same as that for the untreated galactosemic group. (b) After four days, the animals were killed by decapitation. The eyeballs were removed and punctured with a razor blade; the freed lenses were rolled gently on filter paper and weighed. The sciatic nerves were dissected as completely as possible and weighed. Both tissues when frozen can be kept up to two weeks before being analyzed for galactitol. […] Only two minor reagent changes were made: (a) The rinsing mixture was an aqueous 5% (w/v) trichloroacetic acid solution and (b) the stock solution was prepared by dissolving 25 mg of dulcitol in 100 mL of an aqueous trichloroacetic acid solution. [N.B.: For each experiment the average value found in the tissue from rats fed the glucose diet was subtracted from the individual values found in the corresponding tissue in galactose-fed rats to obtain the amount of polyol accumulated.] […] In the present case the procedure of Hayman and Kinoshita was modified in that the final chromatography step was omitted in the preparation of the enzyme from bovine lens. […] The figures under L, N, and D represent the percentage decrease of galactitol accumulation in the tissues of the lens, sciatic nerve, and diaphragm, respectively, for treated rats as compared to untreated rats.
smiles,measurement,setting,value
CCCOC(=O)N(CC(=O)O)C(=O)c1cccc2c(C(F)(F)F)c(OC)ccc12 [Example 3],"% Lowering dulcitol accumulation IN VIVO, D",48 mg/kg,N.S.
same,"% Lowering dulcitol accumulation IN VIVO, L",48 mg/kg,N.S.
O=CN(CC(=O)O)C(=O)c1cccc2c(Br)cccc12 [Example 14],"% Lowering dulcitol accumulation IN VIVO, D",104 mg/kg,17%
same,"% Lowering dulcitol accumulation IN VIVO, L",104 mg/kg,N.S.
COC(=O)N(CC(=O)O)C(=O)c1cccc2c(Br)cccc12 [Example 12],"% Lowering dulcitol accumulation IN VIVO, D",102 mg/kg,24%
same,"% Lowering dulcitol accumulation IN VIVO, L",102 mg/kg,N.S.
"COc1ccc2c(C(=O)N(C=O)CC(=O)O)cccc2c1C(F)(F)F [Example 8, N-Formyl-N-[[6-methoxy-5-(trifluoromethyl)-1-naphthalenyl]carbonyl]glycine]","% Lowering dulcitol accumulation IN VIVO, D",107 mg/kg,82%
same,"% Lowering dulcitol accumulation IN VIVO, L",107 mg/kg,13%
CC(=O)N(CC(=O)O)C(=O)c1cccc2c(Br)cccc12 [Example 15],"% Lowering dulcitol accumulation IN VIVO, D",112 mg/kg,N.S.
same,"% Lowering dulcitol accumulation IN VIVO, L",112 mg/kg,N.S.
COc1ccc2c(C(=O)N(CC(=O)O)C(=O)OCc3ccccc3)cccc2c1C(F)(F)F [Example 6],"% Lowering dulcitol accumulation IN VIVO, D",67 mg/kg,N.S.
same,"% Lowering dulcitol accumulation IN VIVO, L",67 mg/kg,N.S.
O=C(O)CN(C(=O)c1ccccc1)C(=O)c1cccc2c(Br)cccc12 [Example 16],"% Lowering dulcitol accumulation IN VIVO, D",111 mg/kg,N.S.
same,"% Lowering dulcitol accumulation IN VIVO, L",111 mg/kg,N.S.
"COc1ccc2c(C(=O)N(CC(=O)O)C(=O)c3ccccc3)cccc2c1C(F)(F)F [Example 10, N-Benzoyl-N-[[6-methoxy-5-(trifluoromethyl)-1-naphthalenyl]carbonyl]glycine]","% Lowering dulcitol accumulation IN VIVO, D",50 mg/kg,N.S.
same,"% Lowering dulcitol accumulation IN VIVO, L",50 mg/kg,N.S.
COc1ccc2c(C(=O)N(CC(=O)O)C(=O)OCc3ccc(Cl)c([N+](=O)[O-])c3)cccc2c1C(F)(F)F [Example 7],"% Lowering dulcitol accumulation IN VIVO, D",107 mg/kg,N.S.
same,"% Lowering dulcitol accumulation IN VIVO, L",107 mg/kg,N.S.
COc1ccc2c(C(=O)N(CC(=O)O)C(C)=O)cccc2c1C(F)(F)F [Example 9],"% Lowering dulcitol accumulation IN VIVO, D",100 mg/kg,39%
same,"% Lowering dulcitol accumulation IN VIVO, L",100 mg/kg,N.S.
COc1ccc2c(C(=O)N(CC(=O)O)C(=O)OC(C)C)cccc2c1C(F)(F)F [Example 4],"% Lowering dulcitol accumulation IN VIVO, D",dose (mg/kg) printed as N.S.,N.S.
same,"% Lowering dulcitol accumulation IN VIVO, L",dose (mg/kg) printed as N.S.,N.S.
"CCOC(=O)N(CC(=O)O)C(=O)c1cccc2c(C(F)(F)F)c(OC)ccc12 [Example 1, N-[[6-Methoxy-5-(trifluoromethyl)-1-naphthalenyl]carbonyl]-N-[(ethoxy)carbonyl]glycine]","% Lowering dulcitol accumulation IN VIVO, D",57 mg/kg,70%
same,"% Lowering dulcitol accumulation IN VIVO, D",97 mg/kg,83%
same,"% Lowering dulcitol accumulation IN VIVO, L",57 mg/kg,19%
same,"% Lowering dulcitol accumulation IN VIVO, L",97 mg/kg,12%
"COC(=O)N(CC(=O)O)C(=O)c1cccc2c(C(F)(F)F)c(OC)ccc12 [Example 2, N-[[6-Methoxy-5-(trifluoromethyl)-1-naphthalenyl]-carbonyl]-N-[(methoxy)carbonyl]glycine]","% Lowering dulcitol accumulation IN VIVO, D",48 mg/kg,54%
same,"% Lowering dulcitol accumulation IN VIVO, L",48 mg/kg,N.S.
COc1ccc2c(C(=O)N(CC(=O)O)C(=O)OCC(C)(C)C)cccc2c1C(F)(F)F [Example 5],"% Lowering dulcitol accumulation IN VIVO, D",105 mg/kg,N.S.
same,"% Lowering dulcitol accumulation IN VIVO, L",105 mg/kg,N.S.
